Laboratory results from patent publication US20230203043A1, “NOVEL IMIDAZOPYRAZINE DERIVATIVES” (Hoffmann-La Roche Inc., priority 2020, published 2023).

system: Acinetobacter baumannii ATCC17961; experiment: Antimicrobial susceptibility testing: 90% growth inhibitory concentration (IC90) determination in Iso-Sensitest broth, OD600 growth; format: cell-based; conditions: Acinetobacter baumannii, ATCC17961, 16 h, strain ATCC 17961, OD600 growth over 16 h, read-out: A. baumannii ATCC 17961 IC90
Protocol: Antimicrobial Susceptibility Testing:
90% Growth Inhibitory Concentration (IC90) Determination
The in vitro antimicrobial activity of the compounds was determined according to the following procedure:
The assay used a 10-points Iso-Sensitest broth medium to measure quantitatively the in vitro activity of the compounds against Acinetobacter baumannii ATCC17961 or ATCC17968.
Stock compounds in DMSO were serially twofold diluted (e.g. range from 50 to 0.097 μM final concentration) in 384 wells microtiter plates and inoculated with 49 μl the bacterial suspension in Iso-Sensitest medium to have a final cell concentration of ˜5×10^(5) CFU/ml in a final volume/well of 50 ul/well. Microtiter plates were incubated at 35±2° C.
Bacterial cell growth was determined with the measurement of optical density at λ=600 nm each 20 minutes over a time course of 16 h. Growth inhibition was calculated during the logarithmic growth of the bacterial cells with determination of the concentration inhibiting 50% (IC50) and 90% (IC90) of the growth.
Table 7 provides the 90% growth inhibitory concentrations (IC90) in micromoles per liter of the compounds of present invention obtained against the strain Acinetobacter baumannii ATCC17961 and/or ATCC17968.

SMILES	IC90
C#CCNC(=O)c1c(C)cc(Nc2nccn3c(-c4c[nH]nc4C(F)(F)F)cnc23)cc1F [Example 43, 2-fluoro-6-methyl-N-prop-2-ynyl-4-[[3-[3-(trifluoromethyl)-1H-pyrazol-4-yl]imidazo[1,2-a]pyrazin-8-yl]amino]benzamide]	1.95 µM
Cc1cc(Nc2nccn3c(-c4cn(CC(F)F)nc4C(F)(F)F)cnc23)cc(F)c1C(=O)NCCOCCN [Example 49, N-[2-(2-aminoethoxy)ethyl]-4-[[3-[1-(2,2-difluoroethyl)-3-(trifluoromethyl)pyrazol-4-yl]imidazo[1,2-a]pyrazin-8-yl]amino]-2-fluoro-6-methylbenzamide]	0.12 µM
CCc1cc(Nc2nccn3c(-c4cn(CC(F)F)nc4C(F)(F)F)cnc23)ccc1C(=O)NCCOCC(C)(C)N [Example 50, N-[2-(2-amino-2-methylpropoxy)ethyl]-4-[[3-[1-(2,2-difluoroethyl)-3-(trifluoromethyl)pyrazol-4-yl]imidazo[1,2-a]pyrazin-8-yl]amino]-2-ethylbenzamide]	0.121 µM
CCc1cc(Nc2nccn3c(-c4cn(CC(F)F)nc4C(F)(F)F)cnc23)ccc1C(=O)NCCCN [Example 52, N-(3-aminopropyl)-4-[[3-[1-(2,2-difluoroethyl)-3-(trifluoromethyl)pyrazol-4-yl]imidazo[1,2-a]pyrazin-8-yl]amino]-2-ethylbenzamide]	0.144 µM
CCc1cc(Nc2nccn3c(-c4cn(CC(F)F)nc4C(F)(F)F)cnc23)ccc1C(=O)N[C@@H](C)CN [Example 57, N-[(2S)-1-aminopropan-2-yl]-4-[[3-[1-(2,2-difluoroethyl)-3-(trifluoromethyl)pyrazol-4-yl]imidazo[1,2-a]pyrazin-8-yl]amino]-2-ethylbenzamide]	0.202 µM
Cc1cc(Nc2nccn3c(-c4cn(CCF)nc4C(F)(F)F)cnc23)cc(F)c1C(=O)NCCOCCN [Example 61, N-[2-(2-aminoethoxy)ethyl]-2-fluoro-4-[[3-[1-(2-fluoroethyl)-3-(trifluoromethyl)pyrazol-4-yl]imidazo[1,2-a]pyrazin-8-yl]amino]-6-methylbenzamide]	0.232 µM
C=CCn1cc(-c2cnc3c(Nc4ccc(C(=O)N[C@@H](C)CN)c(CC)c4)nccn23)c(C(F)(F)F)n1 [Example 63, N-[(2S)-1-aminopropan-2-yl]-2-ethyl-4-[[3-[1-prop-2-enyl-3-(trifluoromethyl)pyrazol-4-yl]imidazo[1,2-a]pyrazin-8-yl]amino]benzamide]	0.27 µM
C=CCn1cc(-c2cnc3c(Nc4ccc(C(=O)N5CCN(C(=O)C6CCNCC6)CC5)c(CC)c4)nccn23)c(C(F)(F)F)n1 [Example 64, [2-ethyl-4-[[3-[1-prop-2-enyl-3-(trifluoromethyl)pyrazol-4-yl]imidazo[1,2-a]pyrazin-8-yl]amino]phenyl]-[4-(piperidine-4-carbonyl)piperazin-1-yl]methanone]	0.306 µM

The next lines start with the values.

IC90	SMILES
0.059 µM	C#CCn1cc(-c2cnc3c(Nc4ccc(C(=O)NCCOCC(C)(C)N)c(CC)c4)nccn23)c(C(F)(F)F)n1 [Example 44, N-[2-(2-amino-2-methylpropoxy)ethyl]-2-ethyl-4-[[3-[1-prop-2-ynyl-3-(trifluoromethyl)pyrazol-4-yl]imidazo[1,2-a]pyrazin-8-yl]amino]benzamide]
0.093 µM	C#CCn1cc(-c2cnc3c(Nc4ccc(C(=O)N5CCC(CN)CC5)c(CC)c4)nccn23)c(C(F)(F)F)n1 [Example 46, [4-(aminomethyl)piperidin-1-yl]-[2-ethyl-4-[[3-[1-prop-2-ynyl-3-(trifluoromethyl)pyrazol-4-yl]imidazo[1,2-a]pyrazin-8-yl]amino]phenyl] methanone]
0.157 µM	C=CCn1cc(-c2cnc3c(Nc4ccc(C(=O)N5CCC(CN)CC5)c(CC)c4)nccn23)c(C(F)(F)F)n1 [Example 53, [4-(aminomethyl)piperidin-1-yl]-[2-ethyl-4-[[3-[1-prop-2-enyl-3-(trifluoromethyl)pyrazol-4-yl]imidazo[1,2-a]pyrazin-8-yl]amino]phenyl] methanone]
0.162 µM	CCc1cc(Nc2nccn3c(-c4cn(CCF)nc4C(F)(F)F)cnc23)ccc1C(=O)NCCOCC(C)(C)N [Example 54, N-[2-(2-amino-2-methylpropoxy)ethyl]-2-ethyl-4-[[3-[1-(2-fluoroethyl)-3-(trifluoromethyl)pyrazol-4-yl]imidazo[1,2-a]pyrazin-8-yl]amino]benzamide]
0.167 µM	C#CCn1cc(-c2cnc3c(Nc4ccc(C(=O)N[C@@H](C)CN)c(CC)c4)nccn23)c(C(F)(F)F)n1 [Example 55, N-[(2S)-1-aminopropan-2-yl]-2-ethyl-4-[[3-[1-prop-2-ynyl-3-(trifluoromethyl)pyrazol-4-yl]imidazo[1,2-a]pyrazin-8-yl]amino]benzamide]
0.194 µM	CCc1cc(Nc2nccn3c(-c4cn(CCF)nc4C(F)(F)F)cnc23)ccc1C(=O)NCCCN [Example 56, N-(3-aminopropyl)-2-ethyl-4-[[3-[1-(2-fluoroethyl)-3-(trifluoromethyl)pyrazol-4-yl]imidazo[1,2-a]pyrazin-8-yl]amino]benzamide]
0.209 µM	CCc1cc(Nc2nccn3c(-c4cn(CC(F)F)nc4C(F)(F)F)cnc23)ccc1C(=O)N1CCC(CN)CC1 [Example 58, [4-(aminomethyl)piperidin-1-yl]-[4-[[3-[1-(2,2-difluoroethyl)-3-(trifluoromethyl)pyrazol-4-yl]imidazo[1,2-a]pyrazin-8-yl]amino]-2-ethylphenyl] methanone]
0.23 µM	CCc1cc(Nc2nccn3c(-c4cn(CC#N)nc4C(F)(F)F)cnc23)ccc1C(=O)NCCOCC(C)(C)N [Example 60, N-[2-(2-amino-2-methylpropoxy)ethyl]-4-[[3-[1-(cyanomethyl)-3-(trifluoromethyl)pyrazol-4-yl]imidazo[1,2-a]pyrazin-8-yl]amino]-2-ethylbenzamide]
0.242 µM	CCc1cc(Nc2nccn3c(-c4cn(CCF)nc4C(F)(F)F)cnc23)ccc1C(=O)N1CCC(CN)CC1 [Example 62, [4-(aminomethyl)piperidin-1-yl]-[2-ethyl-4-[[3-[1-(2-fluoroethyl)-3-(trifluoromethyl)pyrazol-4-yl]imidazo[1,2-a]pyrazin-8-yl]amino]phenyl] methanone]
0.339 µM	CCc1cc(Nc2nccn3c(-c4cn(CCF)nc4C(F)(F)F)cnc23)ccc1C(=O)N[C@@H](C)CN [Example 65, N-[(2S)-1-aminopropan-2-yl]-2-ethyl-4-[[3-[1-(2-fluoroethyl)-3-(trifluoromethyl)pyrazol-4-yl]imidazo[1,2-a]pyrazin-8-yl]amino]benzamide]
0.413 µM	C#CCn1cc(-c2cnc3c(Nc4cc(C)c(C(=O)N5CCNCC5)c(F)c4)nccn23)c(C(F)(F)F)n1 [Example 67, [2-fluoro-6-methyl-4-[[3-[1-prop-2-ynyl-3-(trifluoromethyl)pyrazol-4-yl]imidazo[1,2-a]pyrazin-8-yl]amino]phenyl]-piperazin-1-ylmethanone]

same assay, conditions: strain ATCC 17961, OD600 growth over 16 h, read-out: A. baumannii ATCC 17961 IC90

SMILES	IC90
C#CCn1cc(-c2cnc3c(Nc4ccc(C(=O)NCCCN)c(CC)c4)nccn23)c(C(F)(F)F)n1 [Example 47, N-(3-aminopropyl)-2-ethyl-4-[[3-[1-prop-2-ynyl-3-(trifluoromethyl)pyrazol-4-yl]imidazo[1,2-a]pyrazin-8-yl]amino] benzamide]	0.105 µM
C#CCn1cc(-c2cnc3c(Nc4cc(C)c(C(=O)NCCOCCN)c(F)c4)nccn23)c(C(F)(F)F)n1 [Example 59, N-[2-(2-aminoethoxy)ethyl]-2-fluoro-6-methyl-4-[[3-[1-prop-2-ynyl-3-(trifluoromethyl)pyrazol-4-yl]imidazo[1,2-a]pyrazin-8-yl]amino] benzamide]	0.216 µM
C#CCNCCCNC(=O)c1c(C)cc(Nc2nccn3c(-c4cn(CC=C)nc4C(F)(F)F)cnc23)cc1F [Example 66, 2-fluoro-6-methyl-4-[[3-[1-prop-2-enyl-3-(trifluoromethyl)pyrazol-4-yl]imidazo[1,2-a]pyrazin-8-yl]amino]-N-[3-(prop-2-ynylamino)propyl] benzamide]	0.379 µM
C#CCNCCCNC(=O)c1c(C)cc(Nc2nccn3c(-c4cn(CC(F)F)nc4C(F)(F)F)cnc23)cc1F [Example 68, 4-[[3-[1-(2,2-difluoroethyl)-3-(trifluoromethyl)pyrazol-4-yl]imidazo[1,2-a]pyrazin-8-yl]amino]-2-fluoro-6-methyl-N-[3-(prop-2-ynylamino)propyl] benzamide]	0.43 µM

Next, values leading:

IC90	SMILES
0.074 µM	C=CCn1cc(-c2cnc3c(Nc4ccc(C(=O)NCCOCC(C)(C)N)c(CC)c4)nccn23)c(C(F)(F)F)n1 [Example 45, N-[2-(2-amino-2-methylpropoxy)ethyl]-2-ethyl-4-[[3-[1-prop-2-enyl-3-(trifluoromethyl)pyrazol-4-yl]imidazo[1,2-a]pyrazin-8-yl]amino] benzamide]
0.117 µM	C=CCn1cc(-c2cnc3c(Nc4ccc(C(=O)NCCCN)c(CC)c4)nccn23)c(C(F)(F)F)n1 [Example 48, N-(3-aminopropyl)-2-ethyl-4-[[3-[1-prop-2-enyl-3-(trifluoromethyl)pyrazol-4-yl]imidazo[1,2-a]pyrazin-8-yl]amino] benzamide]
0.13 µM	C=CCn1cc(-c2cnc3c(Nc4cc(C)c(C(=O)NCCOCCN)c(F)c4)nccn23)c(C(F)(F)F)n1 [Example 51, N-[2-(2-aminoethoxy)ethyl]-2-fluoro-6-methyl-4-[[3-[1-prop-2-enyl-3-(trifluoromethyl)pyrazol-4-yl]imidazo[1,2-a]pyrazin-8-yl]amino] benzamide]
